Source: US8633167B2, “Method for the protection of trees” (Syngenta Crop Protection LLC, priority 2006, dated 2014)

Experiments:
[1] = tested on: pine wood nematode, Bursaphelenchus xylophilis; conditions: cited from earlier work
cerambycids = experiment: Single-tree protection study (Example 2): cerambycid attacks and larval feeding on standing loblolly pine; format: in vivo; conditions: for Cerambycid Feeding Area: bolts cut after tree mortality or at the end of the trial
Procedure: Two 20-year-old, recently thinned loblolly pine plantations were selected on land owned by Temple-Inland Forest Products Corporation about 5 km south of Wells (Angelina County), Tex. Trees in one plantation were injected for use in a bolt study (Example 1). Trees in a 0.2 ha section of the second plantation were injected as part of a single-tree protection study (Example 2). A staging area also was set up in the second plantation where bolts from the first plantation were exposed to bark beetles and wood borers.
Loblolly pine, 15-20 cm DBH, were selected in the second plantation in March 2004. Each treatment (the same as those used in Example 1) was injected into four cardinal points about 0.3 m above the ground on each of 6 trees in April (16th-23rd) using the Arborjet Tree IV™ system. After 5 weeks post-injection (May 28), frills were cut with a hatchet into the sapwood between the injection points near the base of the tree. A cellulose sponge was inserted into each cut and loaded with 10 ml of a 4:1 mix of sodium N-methyldithiocarbamate (MS) (Woodfume®; Osmose, Inc., Buffalo, N.Y.) plus dimethyl sulfoxide (DMSO) (Aldrich Chemical) (Roton 1987, Strom et al. 2004). This method reduces resin to near zero in 1-2 weeks. The intent was to stress the tree and make it susceptible to attack by bark beetles without killing it. […]
Three weeks after pheromone deployment (June 28), each tree was evaluated by marking a 30 cm section of bole at a height of 3 m. All visible Ips attacks and cerambycid egg niches were counted within the marked area. The number of trees with fading crowns also was recorded. Thereafter, the trees were evaluated weekly for crown fading. When mortality did occur, the trees were felled and two bolts taken and evaluated for attack success and gallery length as described in Example 1. […] Treatment efficacy was determined by comparing tree survival, beetle attacks and egg gallery length on treated and untreated bolts. As before, data were transformed and analyzed by GLM and the Fisher's Protected LSD test using the Statview statistical program.

4″-deoxy-4″-N-methylamino avermectin B1a/B1b [Emamectin]
duration of protection ([1]; pine, against pine wood nematode and coneworm): more than three years
efficacy against pine wood nematode ([1]; systemic activity in pine): highly effective
Cerambycid Feeding Area (cerambycids; bolt height 3 m): 0.0 a
Cerambycid Feeding Area (cerambycids; bolt height 8 m): 0.0 a
Mean # of Attacks/0.3 Bole Section at 3 m after 24 days, Cerambycid (cerambycids; standing loblolly pine, after 24 days): 0.8 a
